One series in a line: Solubility of LD. The series is classed as physicochemical. As to conditions: citrate buffered solution of about pH 4.5, 25° C. The procedure:
LD is poorly soluble in most non-toxic solvents, including water and alcohols. […] LD is even less soluble in alcohols. To deliver a typical daily dose of 1,000 mg approximately 150 mL of saturated LD aqueous solution would be required, which is incompatible with the volume requirements for a drug delivery device placed in the mouth.

The conditions of series [1]: assumed for dissolution of orally delivered solid LD in saliva; cited from earlier work.
The conditions of series [2]: extended release tablets; various studies; cited from earlier work.
For series [3] the following is noted: in vivo; cited from earlier work.

Converted amounts (≈) assume the structure as drawn. “And” between values parts separate entries of the source, which are not always exact repeats. Identical values can stand only once. Like-named read-outs stand apart in the source and are kept apart here.

The solubility is the concentration that dissolves in the medium under given conditions. As for `N[C@@H](Cc1ccc(O)c(O)c1)C(=O)O` [LD, levodopa], the solubility in the series “Solubility of LD” (aqueous buffer, read-out: solubility) was roughly 34 mM (≈ 6700 µg/mL); in “Solubility of LD”, “about 0.68 g/100 mL”; in series [1], “about 50 mg/mL”.

Turning to `NC(=O)N1c2ccccc2C=Cc2ccccc21` [Carbamazepine], the “Fluctuation Index” value in series [2] was 0.31 and 0.26 and 0.47 and 0.49.

On to `CC[C@@H](C(N)=O)N1CCCC1=O` [Levetiracetam], for which the “Fluctuation Index” value in series [2] was 1.19 and 1.27.

In the case of `CCN(CC)C(=O)/C(C#N)=C/c1cc(O)c(O)c([N+](=O)[O-])c1` [Entacapone], in series [3], the “crossing of the blood-brain barrier” value is given as “does not cross the blood-brain barrier”, the physiological half-life result is “less than 1 hour” and the plasma half-life was 0.4 to 0.7 h.

Consider `Cc1ccc(C(=O)c2cc(O)c(O)c([N+](=O)[O-])c2)cc1` [Tolcapone], for which, in series [3], the “crossing of the blood-brain barrier” value is reported as “crosses the barrier”, the hepatotoxicity entry is given as “limited by its hepatotoxicity” and the plasma half-life is 2 to 3 h.

(Values after patent US10786474B2, “Pharmaceutical suspensions containing drug particles, devices for their administration, and methods of their use” (SynAgile Corporation, priority 2015, dated 2020).)
